The values below come from the supplement of paper PMC10307832.

The first assay concerns LCLC-103H. Description: relative viability (nuclei count vs DMSO), 5 days (fraction); higher = more cells survive. Particulars: first compound 2.53 µM. In short, it runs like this: (§1)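 Relative viability equals treated-well nuclei counts divided by vehicle-well nuclei counts. Counts came from 4× images of lung cancer cell lines grown in 1536-well plates for 5 days after pin-tool dosing on the day after seeding. Dosing used one drug alone or a fixed anchor-drug dose plus five library-drug doses (not always all listed) in √10 steps, and values are medians of duplicate plates.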
Molecule `CCCCCCCCCCCC1=C(O)C(=O)C=C(O)C1=O` [Embelin] + CCNC(=O)c1noc(-c2cc(C(C)C)c(O)cc2O)c1-c1ccc(CN2CCOCC2)cc1 [Luminespib] (partner 0.01 µM) showed a relative viability of 1.14.

With `CCCCCCCCCCCC1=C(O)C(=O)C=C(O)C1=O` [Embelin] + Cc1nc(Nc2ncc(C(=O)Nc3c(C)cccc3Cl)s2)cc(N2CCN(CCO)CC2)n1 [Dasatinib] (partner 0.075 µM), the relative viability was determined as 0.511.

As for `CCCCCCCCCCCC1=C(O)C(=O)C=C(O)C1=O` [Embelin] + CC(=O)c1c(C)c2cnc(Nc3ccc(N4CCNCC4)cn3)nc2n(C2CCCC2)c1=O [Palbociclib] (partner 0.5 µM), the relative viability was 0.461.

Turning to `CCCCCCCCCCCC1=C(O)C(=O)C=C(O)C1=O` [Embelin] + COc1cccc2cc(-c3nc([C@H]4CC[C@H](C(=O)O)CC4)n4ncnc(N)c34)[nH]c12 [OSI-027] (partner 0.5 µM), the relative viability came out at 0.495.

On to `CCCCCCCCCCCC1=C(O)C(=O)C=C(O)C1=O` [Embelin] + Nc1nc2[nH]cc(CCc3ccc(C(=O)N[C@@H](CCC(=O)O)C(=O)O)cc3)c2c(=O)[nH]1 [Pemetrexed] (partner 0.2 µM), for which the relative viability worked out at 0.449.

Still in this assay, the particulars now being: first compound 8 µM.
Consider `CCCCCCCCCCCC1=C(O)C(=O)C=C(O)C1=O` [Embelin] + CCNC(=O)c1noc(-c2cc(C(C)C)c(O)cc2O)c1-c1ccc(CN2CCOCC2)cc1 [Luminespib] (partner 0.01 µM), for which the relative viability worked out at 0.926.

For the molecule `CCCCCCCCCCCC1=C(O)C(=O)C=C(O)C1=O` [Embelin] + Cc1nc(Nc2ncc(C(=O)Nc3c(C)cccc3Cl)s2)cc(N2CCN(CCO)CC2)n1 [Dasatinib] (partner 0.075 µM), the relative viability was 0.405.

In the case of `CCCCCCCCCCCC1=C(O)C(=O)C=C(O)C1=O` [Embelin] + CC(=O)c1c(C)c2cnc(Nc3ccc(N4CCNCC4)cn3)nc2n(C2CCCC2)c1=O [Palbociclib] (partner 0.5 µM), the relative viability came to 0.511.

Regarding `CCCCCCCCCCCC1=C(O)C(=O)C=C(O)C1=O` [Embelin] + COc1cccc2cc(-c3nc([C@H]4CC[C@H](C(=O)O)CC4)n4ncnc(N)c34)[nH]c12 [OSI-027] (partner 0.5 µM), the relative viability was found to be 0.423.

`CCCCCCCCCCCC1=C(O)C(=O)C=C(O)C1=O` [Embelin] + Nc1nc2[nH]cc(CCc3ccc(C(=O)N[C@@H](CCC(=O)O)C(=O)O)cc3)c2c(=O)[nH]1 [Pemetrexed] (partner 0.2 µM) yielded a relative viability of 0.458.

The test system of the next assay is NCI-H2228. The assay is described as above. Particulars: first compound 0.08 µM. In short, it runs like this: as §1
The molecule `CCCCCCCCCCCC1=C(O)C(=O)C=C(O)C1=O` [Embelin] + CCNC(=O)c1noc(-c2cc(C(C)C)c(O)cc2O)c1-c1ccc(CN2CCOCC2)cc1 [Luminespib] (partner 0.01 µM) gave a relative viability of 0.148.

Molecule `CCCCCCCCCCCC1=C(O)C(=O)C=C(O)C1=O` [Embelin] + Cc1nc(Nc2ncc(C(=O)Nc3c(C)cccc3Cl)s2)cc(N2CCN(CCO)CC2)n1 [Dasatinib] (partner 0.075 µM) yielded a relative viability of 0.503.

As for `CCCCCCCCCCCC1=C(O)C(=O)C=C(O)C1=O` [Embelin] + CC(=O)c1c(C)c2cnc(Nc3ccc(N4CCNCC4)cn3)nc2n(C2CCCC2)c1=O [Palbociclib] (partner 0.5 µM), the relative viability turned out to be 0.824.

Turning to `CCCCCCCCCCCC1=C(O)C(=O)C=C(O)C1=O` [Embelin] + COc1cccc2cc(-c3nc([C@H]4CC[C@H](C(=O)O)CC4)n4ncnc(N)c34)[nH]c12 [OSI-027] (partner 0.5 µM), the relative viability is 0.697.

As to `CCCCCCCCCCCC1=C(O)C(=O)C=C(O)C1=O` [Embelin] + Nc1nc2[nH]cc(CCc3ccc(C(=O)N[C@@H](CCC(=O)O)C(=O)O)cc3)c2c(=O)[nH]1 [Pemetrexed] (partner 0.2 µM), the relative viability came out at 0.329.

Still in this assay, the particulars now being: first compound 0.8 µM.
`CCCCCCCCCCCC1=C(O)C(=O)C=C(O)C1=O` [Embelin] + CCNC(=O)c1noc(-c2cc(C(C)C)c(O)cc2O)c1-c1ccc(CN2CCOCC2)cc1 [Luminespib] (partner 0.01 µM) showed a relative viability of 0.13.

`CCCCCCCCCCCC1=C(O)C(=O)C=C(O)C1=O` [Embelin] + Cc1nc(Nc2ncc(C(=O)Nc3c(C)cccc3Cl)s2)cc(N2CCN(CCO)CC2)n1 [Dasatinib] (partner 0.075 µM) yielded a relative viability of 0.618.

`CCCCCCCCCCCC1=C(O)C(=O)C=C(O)C1=O` [Embelin] + CC(=O)c1c(C)c2cnc(Nc3ccc(N4CCNCC4)cn3)nc2n(C2CCCC2)c1=O [Palbociclib] (partner 0.5 µM) showed a relative viability of 0.865.

In turn, `CCCCCCCCCCCC1=C(O)C(=O)C=C(O)C1=O` [Embelin] + COc1cccc2cc(-c3nc([C@H]4CC[C@H](C(=O)O)CC4)n4ncnc(N)c34)[nH]c12 [OSI-027] (partner 0.5 µM) displayed a relative viability of 0.673.

As for `CCCCCCCCCCCC1=C(O)C(=O)C=C(O)C1=O` [Embelin] + Nc1nc2[nH]cc(CCc3ccc(C(=O)N[C@@H](CCC(=O)O)C(=O)O)cc3)c2c(=O)[nH]1 [Pemetrexed] (partner 0.2 µM), the relative viability worked out at 0.347.

The same assay, now with this note: first compound 2.53 µM.
`CCCCCCCCCCCC1=C(O)C(=O)C=C(O)C1=O` [Embelin] + CCNC(=O)c1noc(-c2cc(C(C)C)c(O)cc2O)c1-c1ccc(CN2CCOCC2)cc1 [Luminespib] (partner 0.01 µM): the relative viability amounted to 0.228.

Molecule `CCCCCCCCCCCC1=C(O)C(=O)C=C(O)C1=O` [Embelin] + Cc1nc(Nc2ncc(C(=O)Nc3c(C)cccc3Cl)s2)cc(N2CCN(CCO)CC2)n1 [Dasatinib] (partner 0.075 µM) had a relative viability of 0.592.

On to `CCCCCCCCCCCC1=C(O)C(=O)C=C(O)C1=O` [Embelin] + CC(=O)c1c(C)c2cnc(Nc3ccc(N4CCNCC4)cn3)nc2n(C2CCCC2)c1=O [Palbociclib] (partner 0.5 µM), for which the relative viability was found to be 0.68.

`CCCCCCCCCCCC1=C(O)C(=O)C=C(O)C1=O` [Embelin] + COc1cccc2cc(-c3nc([C@H]4CC[C@H](C(=O)O)CC4)n4ncnc(N)c34)[nH]c12 [OSI-027] (partner 0.5 µM) came in with a relative viability of 0.726.

As to `CCCCCCCCCCCC1=C(O)C(=O)C=C(O)C1=O` [Embelin] + Nc1nc2[nH]cc(CCc3ccc(C(=O)N[C@@H](CCC(=O)O)C(=O)O)cc3)c2c(=O)[nH]1 [Pemetrexed] (partner 0.2 µM), the relative viability was determined as 0.345.

Still in this assay, the particulars now being: first compound 8 µM.
In the case of `CCCCCCCCCCCC1=C(O)C(=O)C=C(O)C1=O` [Embelin] + CCNC(=O)c1noc(-c2cc(C(C)C)c(O)cc2O)c1-c1ccc(CN2CCOCC2)cc1 [Luminespib] (partner 0.01 µM), the relative viability stood at 0.151.

`CCCCCCCCCCCC1=C(O)C(=O)C=C(O)C1=O` [Embelin] + Cc1nc(Nc2ncc(C(=O)Nc3c(C)cccc3Cl)s2)cc(N2CCN(CCO)CC2)n1 [Dasatinib] (partner 0.075 µM): the relative viability was 0.396.

With `CCCCCCCCCCCC1=C(O)C(=O)C=C(O)C1=O` [Embelin] + CC(=O)c1c(C)c2cnc(Nc3ccc(N4CCNCC4)cn3)nc2n(C2CCCC2)c1=O [Palbociclib] (partner 0.5 µM), the relative viability was 0.834.

For the molecule `CCCCCCCCCCCC1=C(O)C(=O)C=C(O)C1=O` [Embelin] + COc1cccc2cc(-c3nc([C@H]4CC[C@H](C(=O)O)CC4)n4ncnc(N)c34)[nH]c12 [OSI-027] (partner 0.5 µM), the relative viability is 0.485.

In the case of `CCCCCCCCCCCC1=C(O)C(=O)C=C(O)C1=O` [Embelin] + Nc1nc2[nH]cc(CCc3ccc(C(=O)N[C@@H](CCC(=O)O)C(=O)O)cc3)c2c(=O)[nH]1 [Pemetrexed] (partner 0.2 µM), the relative viability was 0.39.

The subject of a further assay is NCI-H1437. The assay is described as above. Particulars: first compound 0.08 µM. In short, it runs like this: as §1
In turn, `CCCCCCCCCCCC1=C(O)C(=O)C=C(O)C1=O` [Embelin] + CCNC(=O)c1noc(-c2cc(C(C)C)c(O)cc2O)c1-c1ccc(CN2CCOCC2)cc1 [Luminespib] (partner 0.01 µM) registered a relative viability of 1.17.
